“And” between values parts separate entries of the source, which are not always exact repeats. Identical values can stand only once. Like-named read-outs stand apart in the source and are kept apart here. e = 2'-O-(2-methoxyethyl) (MOE); [5mC] = 5-methylcytosine; d = 2'-deoxy (DNA)
Columns and labels:
[1] = tested on: JNK1 mRNA; assay: Northern assay of JNK1 mRNA expression in A549 cells; type: cell-based, human; conditions: for Normalized % Control / RNA % Control: JNK1 mRNA; for Normalized % Control: chemically modified oligonucleotides; for RNA % Control: 300 nM for 20 hours then 200 nM for 4 hours
Method: (§1) In order to evaluate the activity of potential JNK-modulating oligonucleotides, human lung carcinoma cell line A549 (American Type Culture Collection, Rockville, Md. No. ATCC CCL-185) cells or other cell lines as indicated in the Examples, were grown and treated with oligonucleotides or control solutions as detailed below. After harvesting, cellular extracts were prepared and examined for specific JNK mRNA levels or JNK protein levels (i.e., Northern or Western assays, respectively). In all cases, “% expression” refers to the amount of JNK-specific signal in an oligonucleotide-treated cell relative to an untreated cell (or a cell treated with a control solution that lacks oligonucleotide), and “% inhibition” is calculated as
100%−% Expression =% Inhibition.
Northern Assays: The mRNA expression of each JNK protein was determined by using a nucleic acid probe specifically hybridizable thereto. Nucleic acid probes specific for JNK1, JNK2 and JNK3 are described in Examples 3, 4 and 5, respectively. The probes were radiolabelled by means well known in the art (see, e.g., Short Protocols in Molecular Biology, 2nd Ed., Ausubel et al., Eds., John Wiley & Sons, New York, 1992, pages 3-11 to 2-3-44 and 4-17 to 4-18; Ruth, Chapter 6 In: Methods in Molecular Biology, Vol. 26: Protocols for Oligonucleotide Conjugates, Agrawal, ed., Humana Press Inc., Totowa, N.J., 1994, pages 167-185; and Chapter 10 In: Molecular Cloning: A Laboratory Manual, 2nd Ed., Sambrook et al., Eds., pages 10.1-10.70). The blots were stripped and reprobed with a ^32P-labeled glyceraldehyde 3-phosphate dehydrogenase (G3PDH) probe (Clontech Laboratories, Inc., Palo Alto, Calif.) in order to confirm equal loading of RNA and to allow the levels of JNK transcripts to be normalized with regard to the G3PDH signals.
A549 cells were grown in T-75 flasks until 80-90% confluent. At this time, the cells were washed twice with 10 mL of media (DMEM), followed by the addition of 5 mL of DMEM containing 20 μg/mL of LIPOFECTIN™ (i.e., 1:1 (w/w) DOTMA/DOPE, Life Technologies, Gaithersburg, Md.; DOTMA=N-[1-(2,3-dioleyoxy)propyl]-N,N,N-trimethylammonium chloride; DOPE=dioleoyl phosphatidylethanolamine). The oligonucleotides were added from a 10 μM stock solution to a final concentration of 400 nM, and the two solutions were mixed by swirling the flasks. As a control, cells were treated with LIPOFECTIN™ without oligonucleotide under the same conditions and for the same times as the oligonucleotide-treated samples. After 4 hours at 37° C., the medium was replaced with fresh DMEM containing 10% serum. The cells were allowed to recover for 18 hours. Total cellular RNA was then extracted in guanidinium, subject to gel electrophoresis and transferred to a filter according to techniques known in the art (see, e.g., Chapter 7 In: Molecular Cloning: A Laboratory Manual, 2nd Ed., Sambrook et al., Eds., pages 7.1-7.87, and Short Protocols in Molecular Biology, 2nd Ed., Ausubel et al., Eds., John Wiley & Sons, New York, 1992, pages 2-24 to 2-30 and 4-14 to 4-29). Filters were typically hybridized overnight to a probe specific for the particular JNK gene of interest in hybridization buffer (25 mM KPO4, pH 7.4; 5×SSC; 5× Denhardt's solution, 100 μg/ml Salmon sperm DNA and 50% formamide) (Alahari et al., Nucl. Acids Res., 1993, 21, 4079). This was followed by two washes with 1×SSC, 0.1% SDS and two washes with 0.25×SSC, 0.1% SDS. Hybridizing bands were visualized by exposure to X-OMAT AR film and quantitated using a PHOSPHORIMAGER™ essentially according to the manufacturer's instructions (Molecular Dynamics, Sunnyvale, Calif.)
B. JNK1-specific probes: In initial screenings of a set of oligonucleotides derived from the JNK1 sequence (Table 2) for biological activity, a cDNA clone of JNK1 (Derijard et al., Cell, 1994, 76, 1025) was radiolabeled and used as a JNK1-specific probe in Northern blots. […]

[2] = tested on: MDA-MB-231 tumors; assay: MDA-MB-231 human breast adenocarcinoma tumors in nude mice; type: in vivo; conditions: MDA-MB-231 tumors, 25 mg/kg intravenous once daily
From the text: Approximately 5×10^6 breast adenocarcinoma cells (cell line MDA-MB-231; American Type Culture Collection, Richmond, Va., No. ATCC HTB-26) were implanted subcutaneously in the right inner thigh of nude mice (n=6 for each of three sets of mice). Oligonucleotides ISIS 15346 (JNK1, SEQ ID NO: 16) and 15353 (JNK2, SEQ ID NO: 31) were suspended in saline and administered once daily to two sets of mice on the first day the tumor volume was about […]. A saline-only (0.9% NaCl) solution was given to a third set of animals as a control. Oligonucleotides were given by intravenous injection at a dosage of 25 mg/kg. Tumor size was measured and tumor volume was calculated on days 12, 19, 26 and 33 following tumor cell inoculation.

[3] = tested on: JNK1 protein; assay: Western assay of JNK1 protein levels in A549 cells; type: cell-based, human; conditions: 300 nM for 20 hours then 200 nM for 4 hours
Method: as §1
Western Assays: A549 cells were grown and treated with oligonucleotides as described above. Cells were lysed, and protein extracts were electrophoresed (SDS-PAGE) and transferred to nitrocellulose filters by means known in the art (see, e.g., Chapter 18 In: Molecular Cloning: A Laboratory Manual, 2nd Ed., Sambrook et al., Eds., pages 18.34, 18.47-18.54 and 18.60-18.75)). The amount of each JNK protein was determined by using a primary antibody that specifically recognizes the appropriate JNK protein. The primary antibodies specific for each JNK protein are described in the appropriate Examples. The primary antibodies were detected by means well known in the art (see, e.g., Short Protocols in Molecular Biology, 2nd Ed., Ausubel et al., Eds., John Wiley & Sons, New York, 1992, pages 10-33 to 10-35; and Chapter 18 In: Molecular Cloning: A Laboratory Manual, 2nd Ed., Sambrook et al., Eds., pages 18.1-18.75 and 18.86-18.88) and quantitated using a PHOSPHORIMAGER™ essentially according to the manufacturer's instructions (Molecular Dynamics, Sunnyvale, Calif.).
F. Western Assays: In order to assess the effect of oligonucleotides targeted to JNK1 mRNAs on JNK1 protein levels, Western assays were performed essentially as described above in Example 2, with the following exception(s) and/or modification(s). A primary antibody that specifically binds to JNK1 (catalog No. sc-474-G) was purchased from Santa Cruz Biotechnology, Inc. (Santa Cruz, Calif.; other JNK1-specific antibodies are available from StressGen Biotechnologies, Inc., Victoria, BC, Canada; and Research Diagnostics, Inc., Flanders, N.J.). In this experiment, cells were grown and treated with oligonucleotide at 300 nM for the initial 20 hours and then at 200 nM for 4 hours. At t=48 h, aliquots were removed for Northern and Western analyses, and fresh media was added to the cells. Aliquots for analysis were also taken at t=72 h. The samples from t=48 h and t=72 h were analyzed using the Northern and Western assays described above.

[4] = tested on: HUVEC; assay: Apoptosis in HUVEC (percent hypodiploid cells, flow cytometry); type: cell-based, human

15346 (antisense CTCTCTGTAGGCCCGCTTGG; sugars from the 5' end e5 d9 e6, [5mC] at 1, 3, 5, 16, all phosphorothioate, methylation of C not given here) [compound 15346]
Normalized % Control ([1]; dose 100 nM): 22.6%
Normalized % Control ([1]; dose 400 nM): 11.0%
RNA % Control ([1]; t = 48 h): 4.3%
RNA % Control ([1]; t = 72 h): 10.6%
inhibition of JNK1 mRNA expression ([1]; chemically modified derivatives of ISIS 12539, 400 nM (Table 5)): at least 88%
tumor growth compared to the saline control [2]: inhibited tumor growth
Protein % Control ([3]; t = 48 h): 42.7%
Protein % Control ([3]; t = 72 h): 25.7%

CTTTCCGTTGGACCCCTGGG (phosphorothioate, 2'-MOE gapmer, further chemistry not given here) [ISIS 18076, scrambled control for ISIS 15346; 2′-methoxyethoxy gapmer, phosphorothioate throughout, reference compound]
percent hypodiploid cells (a measure of apoptosis) [4]: 8% and 10% and 11%

C^ST^SC^ST^SC^ST^SG^ST^SA^SG^SG^SC^SC^SC^SG^SC^ST^ST^SG^SG (antisense CTCTCTGTAGGCCCGCTTGG; DNA, all phosphorothioate, methylation of C not given here) [ISIS 15346, JNK1 gapmer: P═S, 2′-MOE wings; P═S, 2′-deoxy core]
percent hypodiploid cells (a measure of apoptosis) ([4]; HUVEC, Oligo + Cyclohexamide): 8%
percent hypodiploid cells (a measure of apoptosis) ([4]; HUVEC, Oligo + TNFa (10 ng/ml)): 14%
percent hypodiploid cells (a measure of apoptosis) ([4]; HUVEC, Oligo + z-VAD.fmk): 5%
percent hypodiploid cells (a measure of apoptosis) ([4]; HUVEC, Oligo alone): 13%

GTGCGCGCGAGCCCGAAATC (phosphorothioate, 2'-MOE gapmer, further chemistry not given here) [ISIS 18078, scrambled control for ISIS 15353; 2′-methoxyethoxy gapmer, phosphorothioate throughout, reference compound]
percent hypodiploid cells (a measure of apoptosis) [4]: 11% and 12% and 9%

Source: patent publication US20040029823A1, “Antisense oligonucleotide compositions and methods for the modulation of JNK proteins” (priority 1997, published 2004)
